Structures can show the parent of a compound that is named as a salt. Where two headings read alike, the source gives them in different places.
Key:
[1] = test system: lung cancer cells (line MV522); assay: Cancer cell proliferation (MV522) assay (MTT); format: cell-based
Summary of the method: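 Proliferation was read by MTT reduction 72 h after compound addition, in a 4-day protocol with no starvation step. Two thousand MV522 cells were seeded in RPMI1640 with 10% FBS and 2 mM glutamine and given 1 day to attach before dosing.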

[2] = target: T1, unphosphorylated VEGF-R2Δ50 (FLVK) (Homo sapiens, UniProt P35968, DEL940-989/E990V); assay: VEGF-R2 coupled spectrophotometric assay, unphosphorylated construct (FLVK); format: biochemical;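 also: Baculovirus-expressed cytosolic kinase domain, ADP formation linked via pyruvate kinase and lactate dehydrogenase to NADH oxidation, read as falling absorbance at 340 nm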
T1 construct: VEGF-R2Δ50 contains residues 806-939 and 990-1171; made in house; host or cells: baculovirus/insect cells
T1 sequence (P35968 with tags, fused parts or gaps DEL940-989/E990V limits assumed): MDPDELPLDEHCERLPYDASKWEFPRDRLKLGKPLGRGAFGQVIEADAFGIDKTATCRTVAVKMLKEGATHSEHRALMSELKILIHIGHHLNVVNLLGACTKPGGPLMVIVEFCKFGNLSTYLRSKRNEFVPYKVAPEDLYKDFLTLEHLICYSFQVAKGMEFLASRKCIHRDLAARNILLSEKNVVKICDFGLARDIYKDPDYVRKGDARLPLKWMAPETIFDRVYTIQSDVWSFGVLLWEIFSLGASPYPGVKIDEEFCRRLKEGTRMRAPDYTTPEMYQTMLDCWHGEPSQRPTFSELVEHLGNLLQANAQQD
Experimental: A construct (VEGF-R2Δ50) of the cytosolic domain of human vascular endothelial growth factor receptor 2 (VEGF-R2) lacking the 50 central residues of the 68 residues of the kinase insert domain was expressed in a baculovirus/insect cell system. […] Autophosphorylation of the purified construct was performed by incubation of the enzyme at a concentration of 4 μM in the presence of 3 mM ATP and 40 mM MgCl2 in 100 mM Hepes, pH 7.5, containing 5% glycerol and 5 mM DTT, at 4° C. for 2 h.

[3] = test system: human umbilical vein endothelial cells (HUVEC); assay: HUVEC proliferation assay (VEGF-stimulated, MTT); format: cell-based; conditions: Homo sapiens
Summary of the method: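 Proliferation measured by MTT reduction (4 h exposure, absorbance at 595) 72 hours after VEGF stimulation (final 6 ng/ml). Compound added to 24 h-starved HUVEC in F12K with 1% FBS and 0.1% final DMSO, one hour before the growth factor.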

[4] = target: T2, FGF-R1 intracellular kinase domain (Homo sapiens, UniProt P11362, C488A/C584S/L457V); assay: FGF-R spectrophotometric assay; format: biochemical; conditions: for inhibition at 1 µM: read-out: FGF-P percent inhibition; for Ki: read-out: FGF-P Ki
T2 construct: starting from the endogenous methionine residue 456 to glutamate 766; made in house; host or cells: baculovirus expression system
T2 sequence (P11362 456-766 L457V/C488A/C584S): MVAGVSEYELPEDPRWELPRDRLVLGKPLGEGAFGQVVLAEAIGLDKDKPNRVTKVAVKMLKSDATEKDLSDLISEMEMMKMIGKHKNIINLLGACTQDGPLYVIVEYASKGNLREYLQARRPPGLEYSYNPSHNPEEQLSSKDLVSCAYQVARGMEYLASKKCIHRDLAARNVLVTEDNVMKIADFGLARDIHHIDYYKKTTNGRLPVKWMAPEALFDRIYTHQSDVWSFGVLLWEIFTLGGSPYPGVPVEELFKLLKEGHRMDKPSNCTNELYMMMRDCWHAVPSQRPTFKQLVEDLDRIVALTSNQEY

[5] = target: T3, TEK/Tie-2 intracellular kinase domain (Homo sapiens, UniProt Q02763); assay: TEK/Tie-2 spectrophotometric assay; format: biochemical; conditions: read-out: TEK-P percent inhibition
T3 construct: residues 775 to 1124, with methionine added at the N-terminus; made in house; host or cells: baculovirus expression system
T3 sequence (Q02763 775-1124): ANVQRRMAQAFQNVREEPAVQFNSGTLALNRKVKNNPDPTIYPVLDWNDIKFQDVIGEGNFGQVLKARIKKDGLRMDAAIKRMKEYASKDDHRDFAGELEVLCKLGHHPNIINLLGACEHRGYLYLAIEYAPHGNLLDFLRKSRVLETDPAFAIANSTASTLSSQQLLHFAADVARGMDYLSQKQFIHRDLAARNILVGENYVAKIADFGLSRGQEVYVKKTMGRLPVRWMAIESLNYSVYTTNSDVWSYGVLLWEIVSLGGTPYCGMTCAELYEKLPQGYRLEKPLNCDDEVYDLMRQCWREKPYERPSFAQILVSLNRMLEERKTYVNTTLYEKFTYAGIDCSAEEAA
Experimental: The intracellular kinase domain (residues 775 to 1124, with methionine added at the N-terminus) of human TEK/Tie-2 was expressed using the baculovirus vector expression system. For assay purposes, the enzyme was autophosphorylated prior to use by incubation overnight at 4° C., at 10 μM enzyme concentration, with 4 mM ATP, 40 mM MgCl2, and 5 mM DTT in 200 mM Hepes buffer at ph 7.5, in 90:10 water:glycerol.
The production of ADP from ATP that accompanies phosphoryl transfer was coupled to oxidation of NADH using phosphoenolpyruvate (PEP) and a system having pyruvate kinase (PK) and lactic dehydrogenase (LDH). The oxidation of NADH was monitored by following the decrease of absorbance at 340 nm (e340=6.22 cm^−1 mM^−1) using a Beckman DU 650 spectrophotometer. Assay conditions for phosphorylated VEGF-R2Δ50 (indicated as FLVK-P in the tables below) were the following: 1 mM PEP; 250 μM NADH; 50 units of LDH/mL; 20 units of PK/mL; 5 mM DTT; 5.1 mM poly(E4Y1); 1 mM ATP; and 25 mM MgCl2 in 200 mM Hepes, pH 7.5. Assay conditions for unphosphorylated VEGF-R2Δ50 (indicated as FLVK in the tables) were the following: 1 mM PEP; 250 μM NADH; 50 units of LDH/mL; 20 units of PK/mL; 5 mM DTT; 20 mM poly(E4Y1); 3 mM ATP; and 60 mM MgCl2 and 2 mM MnCl2 in 200 mM Hepes, pH 7.5. Assays were initiated with 5 to 40 nM of enzyme. Ki values were determined by measuring enzyme activity in the presence of varying concentrations of test compounds. The data were analyzed using Enzyme Kinetic and Kaleidagraph software.
The spectrophotometric assay was carried out as described above for VEGF-R2, except for the following changes in concentration: TEK/Tie-2=200 nM, MgCl2=40 mM, and ATP=2 mM.

LCK tyrosine kinase = target: T4, LCK tyrosine kinase (Homo sapiens, UniProt P06239, C224D/P223M); assay: LCK spectrophotometric assay; format: biochemical; conditions: for inhibition at 1 µM: read-out: LCK-P percent inhibition; for Ki: read-out: LCK-P Ki;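 as to all read-outs here: recombinant LCK kinase activity on poly(E4Y1), ADP formation coupled through PK/LDH to NADH oxidation, followed as absorbance loss at 340 nm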
T4 construct: starting from amino acid residue 223 to the end of the protein at residue 509; made in house; host or cells: insect cells
T4 sequence (P06239 223-509 P223M/C224D): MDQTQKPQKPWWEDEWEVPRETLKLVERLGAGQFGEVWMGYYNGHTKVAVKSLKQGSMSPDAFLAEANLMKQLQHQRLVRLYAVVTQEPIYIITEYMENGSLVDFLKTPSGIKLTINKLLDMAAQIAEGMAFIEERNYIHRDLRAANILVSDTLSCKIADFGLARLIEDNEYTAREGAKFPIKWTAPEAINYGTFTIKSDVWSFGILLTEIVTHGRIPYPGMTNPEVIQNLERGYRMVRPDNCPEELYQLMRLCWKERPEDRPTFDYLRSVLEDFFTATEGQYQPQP

[6] = target: T5, phosphorylated VEGF-R2Δ50 (FLVK-P) (Homo sapiens, UniProt P35968, DEL940-989/E990V); assay: VEGF-R2 coupled spectrophotometric assay, phosphorylated construct (FLVK-P); format: biochemical
T5 construct: VEGF-R2Δ50 contains residues 806-939 and 990-1171; made in house; host or cells: baculovirus/insect cells
T5 sequence (P35968 with tags, fused parts or gaps DEL940-989/E990V limits assumed): as the sequence (P35968 with tags, fused parts or gaps DEL940-989/E990V limits assumed) above
Summary of the method: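 Continuous PK/LDH-coupled spectrophotometric read (NADH loss at 340 nm) with 5–40 nM enzyme in 200 mM Hepes pH 7.5. Phosphorylated construct run at 1 mM ATP, 25 mM MgCl2, 5.1 mM poly(E4Y1); unphosphorylated at 3 mM ATP, 60 mM MgCl2 plus 2 mM MnCl2, 20 mM poly(E4Y1). Ki values derived from varied inhibitor concentrations.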

FL-CHK-1 = target: T6, FL-CHK-1 (Homo sapiens, UniProt O14757); assay: CHK-1 coupled spectrophotometric assay (Syntide-2); format: biochemical
T6 construct: C-terminally His-tagged full-length human CHK-1 (FL-CHK-1); made in house; host or cells: baculovirus/insect cells
T6 sequence (O14757 1-476): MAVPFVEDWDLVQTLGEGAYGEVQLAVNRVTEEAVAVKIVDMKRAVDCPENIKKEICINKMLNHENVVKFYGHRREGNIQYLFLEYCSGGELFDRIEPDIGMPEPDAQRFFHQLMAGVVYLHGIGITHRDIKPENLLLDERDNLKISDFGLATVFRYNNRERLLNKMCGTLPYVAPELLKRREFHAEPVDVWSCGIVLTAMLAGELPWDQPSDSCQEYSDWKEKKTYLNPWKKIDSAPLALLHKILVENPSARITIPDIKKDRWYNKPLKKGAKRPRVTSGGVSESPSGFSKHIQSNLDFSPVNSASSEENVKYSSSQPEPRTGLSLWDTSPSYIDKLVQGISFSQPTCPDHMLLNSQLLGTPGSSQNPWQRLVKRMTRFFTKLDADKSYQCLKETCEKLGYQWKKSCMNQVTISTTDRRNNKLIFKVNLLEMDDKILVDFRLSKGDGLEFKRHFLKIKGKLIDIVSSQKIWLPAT
Text: C-terminally His-tagged full-length human CHK-1 (FL-CHK-1) was expressed using the baculovirus/insect cell system. It contains 6 histidine residues (6×His-tag) at the C-terminus of the 476 amino acid human CHK-1. The protein was purified by conventional chromatographic techniques.
The production of ADP from ATP that accompanies phosphoryl transfer to the synthetic substrate peptide Syntide-2 ([…]) was coupled to oxidation of NADH using phosphoenolpyruvate (PEP) through the actions of pyruvate kinase (PK) and lactic dehydrogenase (LDH). The oxidation of NADH was monitored by following the decrease of absorbance at 340 nm (ε340=6.22 cm−1 mM^−1) using a HP8452 spectrophotometer. Typical reaction solutions contained: […]; 0.15 mM NADH; 28 units of LDH/ml; 16 units of PK/ml; 3 mM DTT; 0.125 mM Syntide-2; 0.15 mM ATP; 25 mM MgCl2 in 50 mM TRIS, pH 7.5; and 400 mM NaCl. Assays were initiated with 10 nM of FL-CHK-1. Ki values were determined by measuring initial enzyme activity in the presence of varying concentrations of test compounds. The data were analyzed using Enzyme Kinetic and Kaleidagraph software.

[7] = HUVEC, with albumin, read-out: Huvec + Albumin IC50
[8] = unphosphorylated VEGF-R2 construct
[9] = HUVEC proliferation with albumin, read-out: Huvec + Albumin IC50
[10] = VEGF-stimulated HUVEC proliferation, read-out: HUVEC IC50

Row | Compound | IC50 ([1]; MV522) [µM] | Ki [2] [nM] | IC50 ([3]; HUVEC, read-out: HUVEC IC50) [nM] | IC50 [3, 7] [nM] | inhibition at 1 µM [4] [%] | inhibition at 1 µM [5] [%] | inhibition at 1 µM (LCK tyrosine kinase) [%] | Ki [6] [nM] | Ki [4] [nM] | Ki (LCK tyrosine kinase) [nM] | Ki (FL-CHK-1) [µM] | Ki [2, 8] [nM] | IC50 [3, 9] [nM] | IC50 [3, 10] [nM] | IC50 ([1]; MV522 lung cancer cells) [µM] | melting point [°C]
1 | O=C(Nc1ccc(N2CCNCC2)c(C(F)(F)F)c1)c1cccc(CCc2cc(/C=C/c3cccnc3)n[nH]2)c1 [Example F-5] | 1.4 | 0.86 | 4.1 | 17 | 69 | 56 | 84 |  |  |  |  |  |  |  |  | 
2 | COc1ccc(Nc2cc(CCc3cccc(C(=O)Nc4cc(Cl)c(N(C)C)c(Cl)c4)c3)[nH]n2)cn1 [Example G-7, N-(3,5-Dichloro-4-dimethylaminophenyl)-3-{2-[5-(6-methoxy-pyridin-3-yl)amino-2H-pyrazol-3-yl]ethyl}benzamide] | > 10 | 0.25 | 17 | 190 |  | 14 |  | 0.65 | 23 | 27 |  |  |  |  |  | 
3 | COc1ccc(Nc2cc(CCc3cccc(C(=O)Nc4ccc(N5CCCC5)c(C(F)(F)F)c4)c3)[nH]n2)cn1 [Example G-8, 3-{2-[5-(6-Methoxypyridin-3-yl)amino-2H-pyrazol-3-yl]-ethyl}-N-(4-pyrrolidin-1-yl-3-trifluoromethylphenyl)benzamide] | 8.7 | 0.035 | 12 | 114 |  | 62 |  | 0.73 | 20 | 5.8 |  |  |  |  |  | 
4 | COc1ccc(Nc2cc(COc3cc(C(=O)Nc4ccc(N5CCCC5)c(C(F)(F)F)c4)ccc3F)[nH]n2)cn1 [Example J-2, 4-Fluoro-3-[5-(6-methoxy-pyridin-3-yl)amino-2H-pyrazol-3-yl]methoxy-N-(4-pyrrolidin-1-yl-3-trifluoromethyl-phenyl)-benzamide] | > 10 | 0.68 | 26 | 180 |  | 17 |  |  | 57 | 10.5 |  |  |  |  |  | 
5 | Cc1ccc2cc(NC(=O)c3cccc(OCc4cncc5ccccc45)c3)ccc2n1 [Example K-3, 3-(Isoquinolin-4-yl)methoxy-N-(2-methyl-quinolin-6-yl)-benzamide hydrochloride] | > 10 | 3.4 | 430 |  |  |  |  | 1.66 |  |  | 26 |  |  |  |  | 
6 | CC(C)(C)c1cc(C(=O)Nc2cccc(CSc3ncnc4[nH]ncc34)c2)ccc1O [Example V-4, N-{3-[(1H-pyrazolo[3,4-d]-pyrimidin-4-yl)sulfanylmethyl]phenyl}-(4-hydroxy-3-t-butyl)benzamide] |  |  |  |  | 37 | 40 | 22 |  |  |  |  | 0.045 | > 1000 | 27 |  | 
7 | CC(C)(C)c1cc(C(=O)Nc2cccc(OCc3cccnc3)c2)ccc1O [Example X-4, 3-t-Butyl-4-hydroxy-N-[3-(pyridin-3-ylmethoxy)-phenyl]-benzamide] |  |  |  |  | 11 |  | 11 |  |  |  |  | 4.1 | > 1000 | 71 | 6.1 | 104 to 107

From patent US6635641B2 (Agouron Pharmaceuticals, Inc., priority 2000, dated 2003)
